Measured values as given in patent publication US7034018B2, “Substituted pyrrole mannich bases to combat pain and allergic reactions” (Gruenenthal GmbH, priority 1999, dated 2006).

Key:
[1] = target: T1, 5-HT transporter (Rattus norvegicus, UniProt P31652); assay: Inhibition of serotonin re-uptake (5-HT uptake inhibition) in rat brain synaptosomes; type: biochemical; parameters: concentration or dose not given beside the values; conditions: synaptosomes (P2 fraction) from pons and medulla oblongata region of male rat brain; means from 2 parallel experiments
T1 construct: these vesicular particles were isolated from the pons and medulla oblongata region of the male rat brain; from tissue; host or cells: rat brain synaptosomes (P2 fraction) from the pons and medulla oblongata of male rats
T1 sequence (P31652 whole entry): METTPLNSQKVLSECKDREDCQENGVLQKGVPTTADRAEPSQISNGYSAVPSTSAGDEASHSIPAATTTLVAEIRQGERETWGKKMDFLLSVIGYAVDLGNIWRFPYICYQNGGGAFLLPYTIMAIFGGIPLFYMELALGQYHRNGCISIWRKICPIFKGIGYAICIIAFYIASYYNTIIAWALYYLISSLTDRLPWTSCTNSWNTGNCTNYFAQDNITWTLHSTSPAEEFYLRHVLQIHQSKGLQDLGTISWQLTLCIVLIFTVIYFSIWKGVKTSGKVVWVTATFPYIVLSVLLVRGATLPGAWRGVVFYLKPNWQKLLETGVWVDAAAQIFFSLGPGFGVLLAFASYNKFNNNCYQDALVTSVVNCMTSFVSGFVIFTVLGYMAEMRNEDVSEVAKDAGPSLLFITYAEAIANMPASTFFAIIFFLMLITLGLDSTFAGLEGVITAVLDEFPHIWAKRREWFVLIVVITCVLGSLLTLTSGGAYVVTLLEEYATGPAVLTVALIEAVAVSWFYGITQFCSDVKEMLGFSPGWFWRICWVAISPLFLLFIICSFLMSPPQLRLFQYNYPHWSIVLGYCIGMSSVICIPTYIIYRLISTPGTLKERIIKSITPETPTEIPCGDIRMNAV
Description: The investigations of the inhibition of serotonin re-uptake (5-HT uptake inhibition) were carried out by the methods such as are described in M. Ch. Frink, H.-H.-Hennies, W. Englberger, M. Haurand and B. Wilffert, Arzneim.-Forsch./Drug. Res. 46 (III), 11, 1996, pages 1029-1036. They are introduced herewith as reference and thus form part of the disclosure.
To carry out these investigations, synaptosomes were freshly isolated from rat brain areas. In each case the so-called “P2” fraction was used, which was prepared according to the instructions in E. G. Gray and V. P. Whittaker, J. Anat. 76, pages 79-88, 1962. This literature is introduced herewith as reference and thus forms part of the disclosure. For determination of the 5-HT uptake, these vesicular particles were isolated from the pons and medulla oblongata region of the male rat brain.
The following characteristic data were determined for the 5-HT transporter: • 5-HT uptake: Km=0.084±0.011 μM • Vmax: 38.13±4.52 pmol/min/mg protein. The results of the investigations are in each case stated as means from 2 parallel experiments.

[2] = system: phenylquinone-induced writhing in mice; assay: Analgesia test in the phenylquinone-induced writhing test in mice; type: in vivo; conditions: male NMRI mice; standard dose of 10 mg/kg, intravenous, 10 minutes before phenylquinone i.p.
Description: The in-depth investigation for analgesic activity was carried out in the phenylquinone-induced writhing in mice (modified by I. C. Hendershot, J. Forsaith, J. Pharmacol. Exp. Ther. 125, 237-240 (1959)). Male NMRI mice weighing 25-30 g were used for this. Groups of 10 animals per substance dose received 0.3 ml/mouse of a 0.02% aqueous solution of phenylquinone (phenylbenzoquinone, Sigma, Deisenhofen; preparation of the solution with the addition of 5% ethanol and storage in a water bath at 45° C.) administered intraperitoneally 10 minutes after intravenous administration of the test substances. The animals were placed individually in observation cages. The number of pain-induced stretching movements (so-called writhing reactions=straightening of the body with stretching of the hind extremities) were counted by means of a push-button counter for 5-20 minutes after the administration of phenylquinone. Animals which received only physiological saline solution were also run as a control.
The substances were tested in the standard dose of 10 mg/kg. The inhibition of the writhing reactions by a substance was calculated according to the following equation: [formula]

Row | Compound | Inhibition of 5HT uptake in % [1] [%] | Inhibition of the Writhing reaction in % [2] [%]
1 | CC(C)(C)c1ccc(C(c2cccn2C(C)(C)C)N2CCCC2)cc1 (centres unmarked) [Example 42, 1-tert-Butyl-2-[(4-tert-butyl-phenyl)-pyrrolidin-1-yl-methyl]-1H-pyrrole] | 53 | –
2 | Brc1ccc(C(c2cccn2-c2ccccc2)N2CCCC2)cc1 (centres unmarked) [Example 23, 2-[(4-Bromo-phenyl)-pyrrolidin-1-yl-methyl]-1-phenyl-1H-pyrrole] | 57 | –
3 | NC(=S)c1ccccc1-n1cccc1C(c1cc(Br)ccc1F)N1CCCC1 (centres unmarked) [Example 41, 2-{2-[(5-Bromo-2-fluoro-phenyl)-pyrrolidin-1-yl-methyl]-pyrrol-1-yl}-thiobenzamide] | 41 | –
4 | OCCn1cccc1C(c1cccc(Oc2ccccc2)c1)N1CCCCC1 (centres unmarked) [Example 29, 2-{2-[(3-Phenoxy-phenyl)-piperidin-1-yl-methyl]-pyrrol-1-yl}-ethanol] | 48 | –
5 | Fc1ccc(C(c2cccn2Cc2ccccn2)N2CCCC2)cc1Br (centres unmarked) [Example 36, 2-{2-[(3-Bromo-4-fluoro-phenyl)-pyrrolidin-1-yl-methyl]-pyrrol-1-ylmethyl}-pyridine] | 63 | –
6 | N#Cc1ccc(C(c2cccn2Cc2ccccn2)N2CCCC2)cc1 (centres unmarked) [Example 38, 4-[(1-Pyridin-2-ylmethyl-1H-pyrrol-2-yl)-pyrrolidin-1-yl-methyl]-benzonitrile] | 45 | –
7 | O=C(O)c1ccccc1-n1cccc1C(c1cc(Br)ccc1F)N1CCCC1 (centres unmarked) [Example 40, 2-{2-[(5-Bromo-2-fluoro-phenyl)-pyrrolidin-1-yl-methyl]-pyrrol-1-yl}-benzoic acid] | 51 | –
8 | Cn1cccc1C(c1ccc(C(F)(F)F)cc1)N1CCCCC1 (centres unmarked) [Example 33, 1-[(1-Methyl-1H-pyrrol-2-yl)-(4-trifluoromethyl-phenyl)-methyl]-piperidine] | 55 | –
9 | Fc1cccc(Cl)c1C(c1cccn1Cc1ccccn1)N1CCCC1 (centres unmarked) [Example 37, 2-{2-[(2-Chloro-6-fluoro-phenyl)-pyrrolidin-1-yl-methyl]-pyrrol-1-ylmethyl}-pyridine] | 39 | –
10 | Brc1cccc(C(c2cccn2Cc2ccccn2)N2CCCC2)c1 (centres unmarked) [Example 35, 2-{2-[(3-Bromo-phenyl)-pyrrolidin-1-yl-methyl]-pyrrol-1-ylmethyl}-pyridine] | 43 | –
11 | Nc1ccccc1-n1cccc1C(c1c(F)cccc1Cl)N1CCCC1 (centres unmarked) [Example 34, 2-{2-[(2-Chloro-6-fluoro-phenyl)-pyrrolidin-1-yl-methyl]-pyrrol-1-yl}-phenylamine] | 39 | –
12 | NC(=S)c1ccccc1-n1cccc1C(c1cccc(Oc2ccccc2)c1)N1CCCCC1 (centres unmarked) [Example 27, 2-{2-[(3-Phenoxy-phenyl)-piperidin-1-yl-methyl]-pyrrol-1-yl}-thiobenzamide] | 44 | –
13 | Cc1cccc(C(c2cccn2-c2ccccc2N)N2CCCCC2)c1 (centres unmarked) [Example 24, 2-[2-(Piperidin-1-yl-m-tolyl-methyl)-pyrrol-1-yl]-phenylamine] | 59 | –
14 | Cn1cccc1C(c1ccccc1)N1CCCC1 (centres unmarked) [Example 15, 1-Methyl-2-(phenylpyrrolidin-1-yl-methyl)-1H-pyrrole] | – | 87
15 | CN(C)C(c1ccccc1)c1cccn1C (centres unmarked) [Example 16, Dimethyl-[(1-methyl-1H-pyrrol-2-yl)-phenylmethyl]-amine] | – | 17
16 | c1ccc(Oc2cccc(C(c3cccn3Cc3ccccn3)N3CCCCC3)c2)cc1 (centres unmarked) [Example 26, 2-{2-[(3-Phenoxy-phenyl)-piperidin-1-yl-methyl]-pyrrol-1-ylmethyl}-pyridine] | 71 | –
17 | Fc1ccc(-n2cccc2C(c2ccc(F)c(Br)c2)N2CCCC2)cc1 (centres unmarked) [Example 39, 2-[(3-Bromo-4-fluoro-phenyl)-pyrrolidin-1-yl-methyl]-1-(4-fluoro-phenyl)-1H-pyrrole] | 37 | –
18 | N#CCCn1cccc1C(c1ccccc1F)N1CCCCC1 (centres unmarked) [Example 22, 3-{2-[(2-Fluoro-phenyl)-piperidin-1-yl-methyl]-pyrrol-1-yl}-propionitrile] | 83 | –
19 | Cn1cccc1C(c1ccc(F)cc1)N1CCCCC1 (centres unmarked) [Example 32, 1-[(4-Fluoro-phenyl)-(1-methyl-1H-pyrrol-2-yl)-methyl]-piperidine] | 42 | –
20 | Cc1cccc(C(c2cccn2CCCO)N2CCCCC2)c1 (centres unmarked) [Example 30, 3-[2-(Piperidin-1-yl-m-tolyl-methyl)-pyrrol-1-yl]-propan-1-ol] | 43 | –
21 | Fc1ccc(C(c2cccn2CCCl)N2CCCCC2)cc1 (centres unmarked) [Example 28, 1-[[1-(2-Chloro-ethyl)-1H-pyrrol-2-yl]-(4-fluoro-phenyl)-methyl]-piperidine] | 40 | –
22 | OCCCn1cccc1C(c1ccc(F)cc1)N1CCCCC1 (centres unmarked) [Example 31, 3-{2-[(4-Fluoro-phenyl)-piperidin-1-yl-methyl]-pyrrol-1-yl}-propan-1-ol] | 50 | –
23 | Fc1cc(Br)ccc1C(c1cccn1Cc1ccccn1)N1CCCC1 (centres unmarked) [Example 25, 2-{2-[(4-Bromo-2-fluoro-phenyl)-pyrrolidin-1-yl-methyl]-pyrrol-1-ylmethyl}-pyridine] | 52 | –
